Consider 14 compounds from patent US20240343694A1, “PYRIMIDINE DERIVATIVE, METHOD FOR PREPARING SAME, AND PHARMACEUTICAL COMPOSITION FOR PREVENTING OR TREATING CANCER COMPRISING SAME AS ACTIVE INGREDIENT” (KOREA RESERARCH INSTITUTE OF CHEMICAL TECHNOLOGY, priority 2021, published 2024).

For one assay, the target named is EGFR del19 (Homo sapiens (Human), UniProt P00533, DEL746-750). Put plainly: HTRF inhibitory activity against EGFR mutant enzyme (EGFR del19). In kind it is biochemical. The note with it: recombinant enzyme, 37° C. for 2 hours. The essentials: (§1)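 IC50 was derived from 7 concentrations by HTRF: Eu-anti-pTyr and streptavidin-XL665 for 1 h at room temperature, with the 615/665 nm ratio read. The kinase reaction ran 2 h at 37 °C in Tris pH 7.5 buffer with ATP (stated 50 mM) and biotinylated peptide (0.5 mM). Enzyme was preincubated with compound before substrate was added.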
Sequence of EGFR del19 (P00533 other isoform, or with tags, fused parts or gaps del 1-668/del 746-750 limits assumed): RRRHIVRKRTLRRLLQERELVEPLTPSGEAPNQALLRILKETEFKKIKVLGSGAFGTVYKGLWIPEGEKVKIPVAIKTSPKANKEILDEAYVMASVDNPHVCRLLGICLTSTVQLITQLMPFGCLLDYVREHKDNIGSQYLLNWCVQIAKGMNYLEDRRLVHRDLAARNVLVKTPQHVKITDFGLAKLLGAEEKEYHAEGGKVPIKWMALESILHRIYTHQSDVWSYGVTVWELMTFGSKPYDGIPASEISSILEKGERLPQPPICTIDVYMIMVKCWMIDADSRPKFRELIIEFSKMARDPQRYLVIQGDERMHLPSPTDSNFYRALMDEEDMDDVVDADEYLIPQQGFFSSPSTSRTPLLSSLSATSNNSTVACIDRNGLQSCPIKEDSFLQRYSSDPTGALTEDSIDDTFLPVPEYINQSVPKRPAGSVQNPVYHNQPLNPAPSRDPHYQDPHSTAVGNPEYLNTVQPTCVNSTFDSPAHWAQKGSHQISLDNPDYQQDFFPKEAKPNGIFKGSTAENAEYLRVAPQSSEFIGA
For orientation: Time-resolved FRET reads energy transfer from a long-lived donor to a nearby acceptor.

The target of the next assay is EGFR A763_Y764insFHEA (Homo sapiens (Human), UniProt P00533, INS763FHEA). Put plainly: HTRF inhibitory activity against EGFR mutant enzyme (EGFR A763_Y764insFHEA). The note with it: recombinant enzyme, 37° C. for 2 hours. In kind it is biochemical. The essentials: as §1
Sequence of EGFR A763_Y764insFHEA (P00533 other isoform, or with tags, fused parts or gaps del 1-694/ins FHEA behind 763 limits assumed): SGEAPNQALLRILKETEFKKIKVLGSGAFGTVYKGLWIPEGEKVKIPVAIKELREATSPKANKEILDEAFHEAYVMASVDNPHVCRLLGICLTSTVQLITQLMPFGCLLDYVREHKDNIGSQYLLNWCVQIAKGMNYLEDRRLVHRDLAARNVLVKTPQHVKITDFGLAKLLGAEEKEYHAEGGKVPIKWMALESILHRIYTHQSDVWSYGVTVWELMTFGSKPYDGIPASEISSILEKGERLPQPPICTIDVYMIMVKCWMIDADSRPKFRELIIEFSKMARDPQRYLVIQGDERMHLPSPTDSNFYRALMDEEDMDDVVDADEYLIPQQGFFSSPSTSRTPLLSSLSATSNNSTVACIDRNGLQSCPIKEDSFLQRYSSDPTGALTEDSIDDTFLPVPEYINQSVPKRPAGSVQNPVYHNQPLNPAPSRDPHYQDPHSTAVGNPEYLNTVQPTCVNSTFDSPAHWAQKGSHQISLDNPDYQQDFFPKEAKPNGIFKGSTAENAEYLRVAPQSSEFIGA
The next assay concerns the target HER2 A775_G776insYVMA (Homo sapiens (Human), UniProt P04626, INS775YVMA). Description: HTRF inhibitory activity against HER2 mutant enzyme. In kind it is biochemical. The conditions noted are these: recombinant enzyme, 37° C. for 2 hours. The essentials:
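Recombinant HER2 A775_G776insYVMA preincubated with compound, then […] and biotinylated peptide ([…]) added; 2 h at 37 °C in Tris-HCl pH 7.5 buffer with MgCl2, DTT. HTRF detection (Eu anti-phosphotyrosine/streptavidin-XL665); IC50 from 7 concentrations.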

Assay [1] has as its system Ba/F3 EGFR D770_N771insSVD. Put plainly: Growth inhibition of Ba/F3 EGFR mutant cells (CellTiter-Glo). The format is cell-based. The note with it: Ba/F3 EGFR-D770-N771ins_SVD, 72 hours. The essentials: (§2)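 Ba/F3 cells expressing either EGFR insertion mutant were seeded at 1,000 cells/well and dosed 24 h later at eight concentrations from 0 to 10 μM. After 72 h, viability was read by CellTiter-Glo ATP signal. IC50 (μM) was fitted from the eight-point curves.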

In assay [2] the test system is Ba/F3 EGFR V769_D770insASV. Described as above. The format is cell-based. The note with it: 72 hours. The essentials: as §2
In assay [3] the test system is Ba/F3 HER2 A775_G776insYVMA. Put plainly: Growth inhibition of Ba/F3 HER2 mutant cells (CellTiter-Glo). In kind it is cell-based. The conditions noted are these: Mus musculus, BaF3, 72 hours. The essentials:
(§3)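 Ba/F3 cells carrying HER2 A775_G776insYVMA or G776delinsVC were seeded at 1,000 cells/well and dosed 24 h later at 0.01-10 μM (8 concentrations including 0). After 72 h, viability was read as cellular ATP by CellTiter-Glo luminescence, and IC50 values were calculated from the 8-point curves.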

The subject of another assay is Ba/F3 HER2 G776delinsVC. The description is as above. In kind it is cell-based. The conditions noted are these: Mus musculus, BaF3, 72 hours. The method, boiled down:
as §3

pIC50: −log10 of the molar value. Where only a bound is given, the exact number is not on record here.

Sequence of HER2 A775_G776insYVMA (P04626 other isoform, or with tags, fused parts or gaps del 1-675/ins YVMA behind 775 limits assumed): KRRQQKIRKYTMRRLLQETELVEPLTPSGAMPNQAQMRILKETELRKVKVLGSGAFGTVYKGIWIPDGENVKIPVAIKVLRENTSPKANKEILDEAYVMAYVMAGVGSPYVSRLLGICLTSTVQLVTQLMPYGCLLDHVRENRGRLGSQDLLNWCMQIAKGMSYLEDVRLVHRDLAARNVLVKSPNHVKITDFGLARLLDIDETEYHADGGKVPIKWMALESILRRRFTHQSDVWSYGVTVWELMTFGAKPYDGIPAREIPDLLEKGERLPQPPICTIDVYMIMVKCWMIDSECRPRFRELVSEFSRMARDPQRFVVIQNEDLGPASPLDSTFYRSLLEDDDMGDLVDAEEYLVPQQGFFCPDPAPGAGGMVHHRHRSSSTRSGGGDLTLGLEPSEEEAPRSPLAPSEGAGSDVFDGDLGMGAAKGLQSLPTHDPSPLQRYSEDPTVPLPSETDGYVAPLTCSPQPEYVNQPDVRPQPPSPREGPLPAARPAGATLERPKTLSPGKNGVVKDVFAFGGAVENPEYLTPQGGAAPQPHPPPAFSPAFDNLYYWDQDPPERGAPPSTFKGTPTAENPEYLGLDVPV

Take `C=CC(=O)Nc1cc(Nc2ncc(Cl)c(Nc3cccc4c3N(S(C)(=O)=O)CC4)n2)c(OC)cc1N(C)CCN(C)C` [Example 55, N-(5-((5-chloro-4-((1-(methylsulfonyl)indolin-7-yl)amino)pyrimidin-2-yl)amino)-2-((2-(dimethylamino)ethyl)(methyl)amino)-4-methoxyphenyl)acrylamide]: the pIC50 at EGFR del19 was greater than 9.00; on EGFR A763_Y764insFHEA, greater than 9.00; on HER2 A775_G776insYVMA, greater than 9.00; in assay [1], greater than 8.00; in assay [2], greater than 8.00; in assay [3], greater than 8.00. Also, the pIC50 in the assay with Ba/F3 HER2 G776delinsVC was greater than 8.00.

Regarding `C=CC(=O)Nc1cc(Nc2ncc(Cl)c(Nc3cccc4c3N(S(=O)(=O)CC)CC4)n2)c(OC)cc1N(C)CCN(C)C` [Example 56, N-(5-((5-chloro-4-((1-(ethylsulfonyl)indolin-7-yl)amino)pyrimidin-2-yl)amino)-2-((2-(dimethylamino)ethyl)(methyl)amino)-4-methoxyphenyl)acrylamide], the pIC50 at EGFR del19 was greater than 9.00; on EGFR A763_Y764insFHEA, greater than 9.00; at HER2 A775_G776insYVMA, greater than 9.00; in assay [1], greater than 8.00; in assay [2], greater than 8.00; in assay [3] it was greater than 8.00. The same compound showed a pIC50 in the assay on Ba/F3 HER2 G776delinsVC greater than 8.00.

Take `C=CC(=O)Nc1cc(Nc2ncc(Cl)c(Nc3cccc4c3N(S(C)(=O)=O)CC4)n2)c(OC)cc1N(C)CCNC` [Example 57, N-(5-((5-chloro-4-((1-(methylsulfonyl)indolin-7-yl)amino)pyrimidin-2-yl)amino)-4-methoxy-2-(methyl(2-(methylamino)ethyl)amino)phenyl)acrylamide]: the pIC50 at EGFR del19 is greater than 9.00; at EGFR A763_Y764insFHEA, greater than 9.00; at HER2 A775_G776insYVMA, greater than 9.00; in assay [1] it was 7.00 to 7.30; in assay [2], 7.00 to 7.30; in assay [3], 7.00 to 7.30. In the assay with Ba/F3 HER2 G776delinsVC, this compound had a pIC50 of 7.00 to 7.30.

Regarding `C=CC(=O)Nc1cc(Nc2ncc(Cl)c(Nc3cccc4c3N(S(C)(=O)=O)CC4)n2)c(OC)cc1N1CCC(N(C)C)CC1` [Example 58, N-(5-((5-chloro-4-((1-(methylsulfonyl)indolin-7-yl)amino)pyrimidin-2-yl)amino)-2-(4-(dimethylamino)piperidin-1-yl)-4-methoxyphenyl)acrylamide], the pIC50 is greater than 9.00 on EGFR del19; 8.00 at EGFR A763_Y764insFHEA; 7.05 on HER2 A775_G776insYVMA; 7.00 to 7.30 in assay [1]; 7.00 to 7.30 in assay [2]; 7.00 to 7.30 in assay [3]. In addition, in the assay with Ba/F3 HER2 G776delinsVC, the pIC50 is greater than 8.00.

With `C=CC(=O)Nc1cc(Nc2ncc(Cl)c(Nc3cccc4c3N(S(C)(=O)=O)CC4)n2)c(OC)cc1N1CCC(N2CCN(C)CC2)CC1` [Example 59, N-(5-((5-chloro-4-((1-(methylsulfonyl)indolin-7-yl)amino)pyrimidin-2-yl)amino)-4-methoxy-2-(4-(4-methylpiperazin-1-yl)piperidin-1-yl)phenyl)acrylamide], the pIC50 is greater than 9.00 at EGFR del19; greater than 9.00 at EGFR A763_Y764insFHEA; 7.70 on HER2 A775_G776insYVMA; 7.00 to 7.30 in assay [1]; 7.00 to 7.30 in assay [2]; 7.00 to 7.30 in assay [3]. For the same compound, the pIC50 with Ba/F3 HER2 G776delinsVC is 7.00 to 7.30.

With `C=CC(=O)Nc1cc(Nc2ncc(Cl)c(Nc3ccc(C)c(C)c3N(C)C(C)=O)n2)c(OC)cc1N(C)CCN(C)C` [Example 83, N-(5-((5-chloro-4-((3,4-dimethyl-2-(N-methylacetamido)phenyl)amino)pyrimidin-2-yl)amino)-2-((2-(dimethylamino)ethyl)(methyl)amino)-4-methoxyphenyl)acrylamide], the pIC50 is 8.52 on EGFR del19; 7.72 on EGFR A763_Y764insFHEA; 6.43 at HER2 A775_G776insYVMA; 7.30 to 7.52 in assay [1]; 7.30 to 7.52 in assay [2]; less than 7.00 in assay [3]. Besides, the pIC50 in the assay on Ba/F3 HER2 G776delinsVC is greater than 8.00.

On to `C=CC(=O)Nc1cc(Nc2ncc(Cl)c(Nc3ccc(C)c(C)c3NC(C)=O)n2)c(OC)cc1N(C)CCN(C)C` [Example 84, N-(5-((4-((2-acetamido-3,4-dimethylphenyl)amino)-5-chloropyrimidin-2-yl)amino)-2-((2-(dimethylamino)ethyl)(methyl)amino)-4-methoxyphenyl)acrylamide], for which the pIC50 at EGFR del19 was 9.00; at EGFR A763_Y764insFHEA it was 8.52; at HER2 A775_G776insYVMA it was 7.28; in assay [1], 7.30 to 7.52; in assay [2], 7.30 to 7.52; in assay [3] it was less than 7.00. This compound also had a pIC50 in the assay on Ba/F3 HER2 G776delinsVC greater than 8.00.

For `C=CC(=O)Nc1cc(Nc2ncc(Cl)c(Nc3cccc(C)c3N(C)C(C)=O)n2)c(OC)cc1N(C)CCN(C)C` [Example 85, N-(5-((5-chloro-4-((3-methyl-2-(N-methylacetamido)phenyl)amino)pyrimidin-2-yl)amino)-2-((2-(dimethylamino)ethyl)(methyl)amino)-4-methoxyphenyl)acrylamide], the pIC50 on EGFR del19 is 7.74; on EGFR A763_Y764insFHEA, 7.37; on HER2 A775_G776insYVMA it was 6.06; in assay [1] it was 7.30 to 7.52; in assay [2], 7.30 to 7.52; in assay [3], less than 7.00. In the assay with Ba/F3 HER2 G776delinsVC, the pIC50 was 7.52 to 8.00.

Regarding `C=CC(=O)Nc1cc(Nc2ncc(Cl)c(Nc3cccc(C)c3NC(C)=O)n2)c(OC)cc1N(C)CCN(C)C` [Example 86, N-(5-((4-((2-acetamido-3-methylphenyl)amino)-5-chloropyrimidin-2-yl)amino)-2-((2-(dimethylamino)ethyl)(methyl)amino)-4-methoxyphenyl)acrylamide], the pIC50 was 8.70 on EGFR del19; 7.70 on EGFR A763_Y764insFHEA; 6.80 at HER2 A775_G776insYVMA; 7.30 to 7.52 in assay [1]; 7.30 to 7.52 in assay [2]; less than 7.00 in assay [3]. In the assay on Ba/F3 HER2 G776delinsVC, this compound had a pIC50 greater than 8.00.

On to `C=CC(=O)Nc1cc(Nc2ncc(Cl)c(Nc3ccc(C)cc3N(C)C(C)=O)n2)c(OC)cc1N(C)CCN(C)C` [Example 87, N-(5-((5-chloro-4-((4-methyl-2-(N-methylacetamido)phenyl)amino)pyrimidin-2-yl)amino)-2-((2-(dimethylamino)ethyl)(methyl)amino)-4-methoxyphenyl)acrylamide], for which the pIC50 at EGFR del19 was 8.40; on EGFR A763_Y764insFHEA it was 7.62; at HER2 A775_G776insYVMA it was 6.97; in assay [1], 7.30 to 7.52; in assay [2] it was 7.30 to 7.52; in assay [3], less than 7.00. The same compound had a pIC50 in the assay on Ba/F3 HER2 G776delinsVC greater than 8.00.

For `C=CC(=O)Nc1cc(Nc2ncc(Cl)c(Nc3ccc(C)cc3NC(C)=O)n2)c(OC)cc1N(C)CCN(C)C` [Example 88, N-(5-((4-((2-acetamido-4-methylphenyl)amino)-5-chloropyrimidin-2-yl)amino)-2-((2-(dimethylamino)ethyl)(methyl)amino)-4-methoxyphenyl)acrylamide], the pIC50 at EGFR del19 is greater than 9.00; at EGFR A763_Y764insFHEA, 8.70; on HER2 A775_G776insYVMA it was 7.85; in assay [1], 7.52 to 8.00; in assay [2], 7.52 to 8.00; in assay [3] it was 7.30 to 7.52. Besides, the pIC50 in the assay on Ba/F3 HER2 G776delinsVC was greater than 8.00.

In the case of `C=CC(=O)Nc1cc(Nc2ncc(Cl)c(Nc3ccccc3N(C)C(C)=O)n2)c(OC)cc1N(C)CCN(C)C` [Example 89, N-(5-((5-chloro-4-((2-(N-methylacetamido)phenyl)amino)pyrimidin-2-yl)amino)-2-((2-(dimethylamino)ethyl)(methyl)amino)-4-methoxyphenyl)acrylamide], the pIC50 is 7.70 on EGFR del19; 7.11 at EGFR A763_Y764insFHEA; 6.32 on HER2 A775_G776insYVMA; 7.30 to 7.52 in assay [1]; 7.30 to 7.52 in assay [2]; less than 7.00 in assay [3]. This compound showed a pIC50 in the assay with Ba/F3 HER2 G776delinsVC of 7.52 to 8.00.

For `C=CC(=O)Nc1cc(Nc2ncc(Cl)c(Nc3ccccc3NC(C)=O)n2)c(OC)cc1N(C)CCN(C)C` [Example 90, N-(5-((4-((2-acetamidophenyl)amino)-5-chloropyrimidin-2-yl)amino)-2-((2-(dimethylamino)ethyl)(methyl)amino)-4-methoxyphenyl)acrylamide], the pIC50 is 9.00 on EGFR del19; 8.15 on EGFR A763_Y764insFHEA; 7.43 on HER2 A775_G776insYVMA; 7.30 to 7.52 in assay [1]; 7.30 to 7.52 in assay [2]; less than 7.00 in assay [3]. The compound further showed a pIC50 in the assay with Ba/F3 HER2 G776delinsVC greater than 8.00.

Consider `C=CC(=O)Nc1cc(Nc2ncc(Cl)c(Nc3cccc4c3N(C(C)=O)CC4)n2)c(OC)cc1N(C)CCN(C)C` [Example 91, N-(5-((4-((1-acetylindolin-7-yl)amino)-5-chloropyrimidin-2-yl)amino)-2-((2-(dimethylamino)ethyl)(methyl)amino)-4-methoxyphenyl)acrylamide], for which the pIC50 on EGFR del19 was greater than 9.00; on EGFR A763_Y764insFHEA, 9.00; at HER2 A775_G776insYVMA it was 8.22; in assay [1], greater than 8.00; in assay [2], greater than 8.00; in assay [3], greater than 8.00. Further, in the assay on Ba/F3 HER2 G776delinsVC, the pIC50 is greater than 8.00.

What is called pIC50 is the IC50 on a negative log10 scale, so that one unit is a factor of ten.
